Tested on: MC38 mouse colon cancer tumor
Assay: Tumor size of subcutaneously implanted MC38 mouse colon cancer in mice
Assay type: in vivo
Excerpt: As the test animals, 6-week old […] mice (female, weighed around 20 g, CLEA Japan, Inc.) were purchased, and used after being acclimated to the environment for two to five days. • (2) Transplantation Method
In the right abdomen of the test animals, 5×10^5 mouse colon cancer cell lines (MC38) were subcutaneously implanted by using a 27 G needle. • (3) Administration method
Into the mice (n=[…] to 8) to which the colon cancer cell lines (MC 38) had been inoculated, every day from the 3rd day after the inoculation to the last day of the experiment, 200 μl of a curcumin solution prepared by suspending a commercially available curcumin 10%-containing pharmaceutical preparation (Theracurmin® CR-031P, manufactured by Theravalues Corporation) (Examples 1 to 4) in water or by suspending the synthetic curcumin-HPMC complex prepared as described below (Example 5) in water (prepared so that the curcumin content as 5 mg or 30 mg per 1 kg body weight) was forcibly administered orally to the mice using a feeding needle.
In addition, as so the control groups, a curcumin single administration group (Comparative Examples 1, 4, 6, and 10) in a case where Rat IgG2b (clone: LTF-2 manufactured by Bio X Cell) was intraperitoneally administered in place of the anti-PD-L1 antibody (clone: 10F·9G2 manufactured by Bio X Cell) or the anti-PD-1 antibody (clone: RMP1-14 manufactured by Bio X. Cell); an anti-PD-L1 antibody single administration group (Comparative Examples 2, 5 and 7) in a case where water was administered in place of the curcumin solution, and an anti-PD-L1 antibody was administered; an anti-PD-1 antibody single administration group (Comparative Examples 9 and 11) in a case where water was administered in place of the curcumin solution, and an anti-PD-1 antibody was administered; and a water administration group (Comparative Example 3) in a case where water was administered in place of the curcumin solution, and Rat IgG2b (clone: LTF-2 manufactured by Bio X Cell) was administered in place of the anti-PD-L1 antibody were prepared. • (4) Evaluation of Tumor Size
The tumor size of the test animals was measured by measuring the long diameter and the short diameter of the tumor with a vernier caliper every 2 to 4 days, and calculated by the following equation. Tumor size=the long diameter×the short diameter×the short diameter÷2 (Mathematical Formula 1) • (5) Preparation method of synthetic curcumin-HPMC complex

COc1cc(/C=C/C(=O)/C=C(O)/C=C/c2ccc(O)c(OC)c2)ccc1O [curcumin]
size of the MC38 mouse colon cancer tumor compared with the control (FIG. 3, curcumin 5 mg/kg/mouse singly administered): same size as that of the control
antiproliferative effect of the colon cancer tumor (FIG. 3, curcumin 5 mg/kg/mouse, anti-PD-L1 antibody on 7th, 10th, 13th days): not recognized
size of the MC38 mouse colon cancer tumor compared with the control (FIG. 4, curcumin 30 mg/kg/mouse singly administered): same size as that of the control
antiproliferative effect of the colon cancer tumor (FIG. 4, curcumin 30 mg/kg/mouse, anti-PD-L1 antibody): not recognized
